Results reported in the NIST ThermoML archive (doi:10.1016/j.fluid.2011.06.012).

How the values were obtained:
[1] = Molar enthalpy of transition or fusion; details: DSC

CCCC[N+]1(C)CCCC1.N#C[S-] [1-butyl-1-methylpyrrolidinium thiocyanate]
298.15 K, 101.33 kPa, Liquid
Details | mass density [kg/m3] | viscosity [mPa·s]
Cone and plate viscometry | – | 109.46
Vibrating tube method | 1024.77 | –

Details | Normal melting temperature [°C] | Triple point temperature [K]
Crystal 1, DTA | 22.2 | –
Crystal 2, DTA | – | 245.3

[1]
Details | Molar enthalpy of transition or fusion [kcal/mol]
Crystal 1 | 0.491
Crystal 2 | 2.07
